Data set [1] has as its target T1, recombinant human Meningioma Expressed Antigen 5 (MGEA5), also referred to as O-GlcNAcase (OGA) (Homo sapiens, UniProt O60502).
T1 construct: Full length OGA enzyme was purchased at OriGene (cat #TP322411); purchased OriGene TP322411
T1 sequence (O60502 1-916): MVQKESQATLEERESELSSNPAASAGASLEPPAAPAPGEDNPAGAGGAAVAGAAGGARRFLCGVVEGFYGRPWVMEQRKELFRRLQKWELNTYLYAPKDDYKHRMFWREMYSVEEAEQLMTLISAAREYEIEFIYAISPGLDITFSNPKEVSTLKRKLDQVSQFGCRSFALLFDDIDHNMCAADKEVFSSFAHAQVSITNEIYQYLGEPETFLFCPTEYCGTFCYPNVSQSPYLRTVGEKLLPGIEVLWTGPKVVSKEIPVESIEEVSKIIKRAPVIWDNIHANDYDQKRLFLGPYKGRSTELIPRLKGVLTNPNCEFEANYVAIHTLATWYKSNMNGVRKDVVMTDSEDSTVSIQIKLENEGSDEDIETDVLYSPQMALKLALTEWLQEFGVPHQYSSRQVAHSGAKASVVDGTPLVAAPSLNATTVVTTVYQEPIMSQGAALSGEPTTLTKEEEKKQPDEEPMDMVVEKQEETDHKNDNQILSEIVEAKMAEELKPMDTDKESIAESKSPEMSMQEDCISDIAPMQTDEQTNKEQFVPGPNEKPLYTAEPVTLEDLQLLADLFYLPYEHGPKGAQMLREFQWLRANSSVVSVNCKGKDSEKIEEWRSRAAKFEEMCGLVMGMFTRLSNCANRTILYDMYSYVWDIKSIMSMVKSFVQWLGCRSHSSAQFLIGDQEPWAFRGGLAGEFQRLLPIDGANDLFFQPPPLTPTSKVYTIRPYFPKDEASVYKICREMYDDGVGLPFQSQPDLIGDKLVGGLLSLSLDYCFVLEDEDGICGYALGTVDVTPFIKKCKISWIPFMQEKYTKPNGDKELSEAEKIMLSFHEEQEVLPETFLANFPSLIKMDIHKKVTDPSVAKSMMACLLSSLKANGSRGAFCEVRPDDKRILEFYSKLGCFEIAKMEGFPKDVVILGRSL
The data set can be described thus: OGA biochemical assay (inhibition of FM-GlcNAc hydrolysis, fluorescence). The following applies: FM-GlcNAc substrate; for IC50: 6 h at room temperature, read-out: Enzymatic hOGA, pIC50 (converted); for Emax / Enzymatic Emax (%): maximal effect; for Emax: read-out: Enzymatic Emax (%). The method, boiled down:
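Full-length OGA (2 nM) pre-incubated 60 min at room temperature with compound, then FM-GlcNAc (100 uM final) hydrolysed 6 h at room temperature in 200 mM citrate/phosphate pH 7.2 with 0.005% Tween-20. Stopped with carbonate pH 11.0; fluorescein read at ex 485/em 538 nm. IC50 and Hill coefficient from curve fit between no-inhibitor and saturating-standard controls.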

The next data set has as its target T2, OGA (Homo sapiens, UniProt O60502).
T2 construct: HEK293 cells inducible for P301L mutant human Tau (isoform 2N4R) were established at Janssen; endogenous in cells; host or cells: HEK293 cells inducible for P301L mutant human Tau (2N4R)
T2 sequence (O60502 1-916): T1 sequence (O60502 1-916)
The data set can be described thus: OGA cellular assay (ICC detection of O-GlcNAcylated proteins in HEK293 cells inducible for P301L mutant human Tau). The class given is cell-based. The conditions noted are these: for Emax: HEK293, HEK293 cells inducible for P301L mutant human Tau; for Emax / Cellular Emax (%): maximum = Thiamet G 200 uM; for EC50: read-out: Cellular hOGA, pEC50 (converted). The method in brief: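 HEK293 cells inducible for P301L Tau (2N4R), seeded in low-glucose medium, treated with compound for 6 h at 0.2% DMSO. O-GlcNAc immunostained with CTD110.6 after PFA fixation; 488 nm intensity imaged, Hoechst nuclei counted for toxicity. IC50 by non-linear regression, 200 uM Thiamet G as maximum.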

[2] abbreviates: HEK293 cells inducible for P301L mutant human Tau, 6 hours incubation.
[3] abbreviates: HEK293 cells inducible for P301L mutant human Tau.

The values below come from patent US20210115040A1, “OGA INHIBITOR COMPOUNDS” (Janssen Pharmaceutica NV, priority 2018, published 2021).

The melting point is the temperature of the solid-liquid transition. Broadly, the Emax is the greatest response seen or fitted, relative to the assay's reference.

Each structure is given as a SMILES string.

Compound `Cc1cc(C[C@H]2CCCN(C(C)c3cnc4[nH]c(C)nc4c3)C2)cc(C)n1` (single isomer, unassigned) [Compound 6a] had a melting point of 180.52 °C. In data set [1], the IC50 was 1580 nM and the Emax came out at 89%.
Take `Cc1cc(C[C@H]2CCCN(C(C)c3ccc4oc(C)nc4n3)C2)cc(C(F)(F)F)n1` (mixture of isomers) [Compound 24ab]: the Emax at OGA was 91%. Moreover, on OGA (setting [2]), the EC50 was 50.1 nM. In data set [1], the IC50 was 12.6 nM and the Emax came out at 103%.
Regarding `Cc1cc(C2CCCN(C(C)c3ccc4oc(C)nc4n3)C2)cc(C(F)(F)F)n1` (racemic) [Compound 19], the maximum response (Emax) on OGA is 68%. Besides, the EC50 on OGA (setting [2]) was 501 nM. In data set [1], the IC50 is 20 nM and the Emax worked out at 99%.
Regarding `Cc1cc(OC[C@H]2CCCN([C@H](C)c3ccc4sc(C)nc4n3)C2)nc(C)n1` [Compound 49b], the Emax was determined as 70% at OGA and 99% in data set [1]. For the same compound, the EC50 on OGA (setting [2]) is 31.6 nM. Besides, the IC50 in data set [1] was 6.31 nM.
`Cc1cc(OC2CCCN(C(C)c3ccc4sc(C)nc4n3)C2)cc(C)n1` (stereo not shown) [Compound 40]: the Emax on OGA was found to be 49%; in data set [1] it was 99%. Further, the EC50 on OGA (setting [2]) is 794 nM. For the same compound, the IC50 in data set [1] was 12.6 nM.
For the compound `Cc1cc(O[C@@H]2CCN(C(C)c3cc4nc(C)sc4cc3F)C2)cc(C)n1` (stereo partly shown) [Compound 88], the maximal response (Emax) on OGA is 66%; in data set [1], 99%. Moreover, the EC50 on OGA (setting [2]) is 251 nM. The IC50 in data set [1] was 3.16 nM.
Regarding `Cc1cc(C[C@H]2CCN(C(C)c3cnc4[nH]c(C)nc4c3)C2)cc(C(F)(F)F)n1` (stereo partly shown) [Compound 104], the Emax at OGA was found to be 20%; in data set [1] it was 94%. At OGA (setting [2]), the EC50 is greater than 1000 nM. For the same compound, the IC50 in data set [1] was 501 nM.
`Cc1cc(C[C@H]2CCCN(C(C)c3ccc4oc(C)nc4n3)C2)cc(OC(F)(F)F)n1` (mixture of isomers) [Compound 25ab] had an Emax on OGA of 86%. Moreover, the EC50 on OGA (setting [2]) was 200 nM. Also, in data set [1], the IC50 is 15.8 nM and the maximum response (Emax) was 101%.
As for `Cc1cc(C[C@H]2CCN(C(C)c3cnc4[nH]c(C)nc4c3)C2)cc(C)n1` (stereo partly shown) [Compound 102], the Emax is 32% at OGA and 96% in data set [1]. For the same compound, the EC50 at OGA (setting [2]) is greater than 1000 nM. For the same compound, the IC50 in data set [1] was 398 nM.
On OGA, `Cc1cc(C[C@H]2CCCN(C(C)c3ccc4cn(C)nc4n3)C2)cc(C)n1` (mixture of isomers) [Compound 12ab] had a maximal effect (Emax) of 71%. Besides, the EC50 at OGA (setting [2]) was 251 nM. In addition, in data set [1], the IC50 is 25.1 nM and the Emax worked out at 100%.
`Cc1cc([C@H]2CCCN(C(C)c3nc4nc(C)sc4cc3F)C2)cc(C)n1` (single isomer, unassigned) [Compound 85]: the maximal effect (Emax) was found to be 75% on OGA and 100% in data set [1]. On OGA (setting [2]), the EC50 was 10 nM. For the same compound, the IC50 in data set [1] was 3.98 nM.
As for `Cc1cc(C[C@@H]2CCN(C(C)c3ccc4sc(C)nc4n3)C2)nc(C)n1` (single isomer, unassigned) [Compound 72], the maximal response (Emax) at OGA turned out to be 18%. Moreover, the EC50 at OGA (setting [2]) was greater than 1000 nM. Also, in data set [1], the IC50 was 316 nM and the maximal effect (Emax) amounted to 95%.
On the same counts, the results for `Cc1cc(C[C@@H]2CCN([C@H](C)c3cc4nc(C)sc4cc3F)C2)cc(C)n1` [Compound 59] are 11%, greater than 1000 nM, 200 nM and 98%.
For the compound `Cc1cc(O[C@@H]2CCN(C(C)c3ccc4sc(C)nc4n3)C2)cc(C)n1` (single isomer, unassigned) [Compound 74], the “Cellular hOGA; pEC50” value on OGA (setting [2]) was less than 6. For the same compound, the “Cellular Emax (%)” value on OGA (setting [3]) is recorded as −4%. In addition, in data set [1], the IC50 is 158 nM and the “Enzymatic Emax (%)” value is given as 97%.
Compound `Cc1cc(C[C@H]2CCCN(C(C)c3ccc4oc(C)nc4n3)C2)cc(C)n1` (mixture of isomers) [Compound 22] registered an Emax on OGA of 91%. Besides, at OGA (setting [2]), the EC50 was 12.6 nM. In addition, in data set [1], the IC50 was 3.16 nM and the maximum response (Emax) stood at 101%.
Take `Cc1cc(C[C@@H]2CCN(C(C)c3nc4nc(C)sc4cc3F)C2)cc(C)n1` (single isomer, unassigned) [Compound 94]: the EC50 at OGA (setting [2]) is greater than 1000 nM. The “Cellular Emax (%)” value on OGA (setting [3]) is reported as 2%. Moreover, in data set [1], the IC50 is 1580 nM and the “Enzymatic Emax (%)” value turned out to be 76%.
Turning to `Cc1cc(CO[C@H]2CCCN(C(C)c3cc4nc(C)sc4cc3F)C2)cc(C)n1` (single isomer, unassigned) [Compound 101], the EC50 at OGA (setting [2]) was 50.1 nM. In addition, the “Cellular Emax (%)” value on OGA (setting [3]) worked out at 73%. Moreover, in data set [1], the IC50 was 3.98 nM and the “Enzymatic Emax (%)” value is listed as 98%.
Regarding `Cc1cc(C)nc(CO[C@@H]2CCN(C(C)c3ccc4sc(C)nc4n3)C2)c1` (stereo partly shown) [Compound 80], the Emax at OGA was found to be 5%. The EC50 at OGA (setting [2]) is greater than 1000 nM. In data set [1], the IC50 is 2000 nM and the maximal effect (Emax) was 85%.
With `COc1cc(C[C@H]2CCCN([C@H](C)c3ccc4oc(C)nc4n3)C2)cc(C)n1` (relative stereo) [Compound 23a], the Emax on OGA stood at 79%; in data set [1], 101%. For the same compound, on OGA (setting [2]), the EC50 was 25.1 nM. In data set [1], the IC50 was 7.94 nM.
In the case of `Cc1cc(C[C@H]2CCCN(C(C)c3cnc4oc(C)nc4c3)C2)cc(C)n1` (mixture of isomers) [Compound 30], the maximum response (Emax) on OGA amounted to 79%. For the same compound, the EC50 on OGA (setting [2]) was 200 nM. Besides, in data set [1], the IC50 is 12.6 nM and the maximal effect (Emax) worked out at 102%.
